Test results from ChEMBL document CHEMBL4229420, “ROCK inhibitors 2. Improving potency, selectivity and solubility through the application of rationally designed solubilizing groups” (Bioorg Med Chem Lett, 2018).
In brackets after ≈: the same amount, converted by molar mass.

Experiment: Solubility of the compound in pH 7.4 phosphate buffer
Format: physicochemical
Conditions: buffer

Row | SMILES | solubility
1 | CN1CCN(CCCOc2cccc(CC(=O)Nc3nc(-c4ccncc4)cs3)c2)CC1 | > 200 µM
2 | O=C(Cc1cccc(OCCCC2CCNCC2)c1)Nc1nc(-c2ccncc2)cs1 | > 200 µM

Same assay, conditions: phosphate buffer, read-out: solubility

Row | SMILES | solubility
3 | COc1cccc(CC(=O)Nc2nc(-c3ccncc3)cs2)c1 | 22 µM (≈ 7.16 µg/mL)
4 | O=C(Cc1cccc(OCCN2CCCCC2)c1)Nc1nc(-c2ccncc2)cs1 | > 200 µM
5 | O=C(Cc1cccc(OCCCN2CCNCC2)c1)Nc1nc(-c2ccncc2)cs1 | > 200 µM
6 | O=C(Cc1cccc(OCCCN2CCOCC2)c1)Nc1nc(-c2ccncc2)cs1 | > 200 µM
7 | CN1CCC(CCCOc2cccc(CC(=O)Nc3nc(-c4ccncc4)cs3)c2)CC1 | > 200 µM
8 | O=C(Cc1cccc(OCCCN2CCCCC2)c1)Nc1nc(-c2ccncc2)cs1 | > 200 µM
9 | CN1CCN(CCOc2cccc(CC(=O)Nc3nc(-c4ccncc4)cs3)c2)CC1 | > 200 µM
10 | O=C(Cc1cccc(OCCN2CCNCC2)c1)Nc1nc(-c2ccncc2)cs1 | > 200 µM
11 | O=C(Cc1cccc(OCCN2CCOCC2)c1)Nc1nc(-c2ccncc2)cs1 | > 200 µM
